From patent US8563779B2, “(4-trifluoromethyl-3-thiobenzoyl)cyclohexanediones and use thereof as herbicides” (Bayer CropScience AG, priority 2010, dated 2013)

Assays:
PHBPU [1] = experiment: Post-emergence herbicidal action against weed plants; type: in vivo, Pharbitis purpureum; details: scored after 3 to 4 weeks under glass
Experimental: (§1) [table] 2. Post-emergence Herbicidal Action Against Weed Plants Seeds of monocotyledonous and dicotyledonous weed plants are set out in cardboard pots in sandy loam soil, covered with soil, and cultivated under glass under good growth conditions. Two to three weeks after sowing, the trial plants are treated at the three-leaf stage. The compounds according to the invention, formulated as wettable powders or as emulsifiable concentrates, are sprayed onto the surface of the green parts of the plants, at a water application rate of 600 to 800 l/ha (converted). After the trial plants have stood for 3 to 4 weeks under optimum growth conditions under glass, the action of the compounds according to the invention is scored in comparison to compounds disclosed in the prior art.

EPHHL = experiment: as above; type: in vivo, Euphorbia heterophylla; details: dose 12.5 g a.c./ha, scored after 3 to 4 weeks under glass
Experimental: as §1

PHBPU [2] = experiment: Pre-emergence herbicidal action against weed plants; type: in vivo, Pharbitis purpureum; details: dose 320 g a.c./ha, scored after 3 to 4 weeks under glass
From the text: (§2) Water-dispersible granules are also obtained by homogenizing and precomminuting, in a colloid mill, • 25 parts by weight of a compound of the formula (I), • 5 parts by weight of sodium 2,2′-dinaphthylmethane-6,6′-disulfonate, • 2 parts by weight of sodium oleoylmethyltaurinate, • 1 part by weight of polyvinyl alcohol, • 17 parts by weight of calcium carbonate and • 50 parts by weight of water, subsequently grinding the mixture in a bead mill and atomizing and drying the resulting suspension in a spray tower by means of a single-fluid nozzle. C. BIOLOGICAL EXAMPLES 1. Pre-emergence Herbicidal Action Against Weed Plants
(§3) Seeds or rhizome sections of mono- and dicotyledonous weed plants are set out in pots of 9 to 13 cm in diameter, in sandy loam soil, and are covered with soil. The herbicides, formulated as emulsifiable concentrates or dusts, are applied to the surface of the covering earth in the form of aqueous dispersions or suspensions or emulsions, at a water application rate of 300 to 800 l/ha (converted). The pots are then maintained under glass under optimum conditions for the further cultivation of the plants. After 3 to 4 weeks under optimum growth conditions under glass, the trial plants are scored for the effect of the compounds according to the invention in comparison to compounds disclosed in the prior art.

VIOTR = experiment: as above; type: in vivo, Viola tricolor; details: dose 320 g a.c./ha, scored after 3 to 4 weeks under glass
From the text: as §2, §3

PAPRH = experiment: Post-emergence herbicidal action against weed plants; type: in vivo, Papaver rhoeas; details: dose 50 g a.c./ha, scored after 3 to 4 weeks under glass
Experimental: as §1

ALOMY [3] = experiment: Pre-emergence herbicidal action against weed plants; type: in vivo, Alopecurus myosuroides; details: dose 320 g a.c./ha, scored after 3 to 4 weeks under glass
From the text: as §2, §3

MATIN = experiment: Post-emergence herbicidal action against weed plants; type: in vivo, Matricaria inodora; details: dose 50 g a.c./ha, scored after 3 to 4 weeks under glass
Experimental: as §1

POLCO = experiment: Pre-emergence herbicidal action against weed plants; type: in vivo, Polygonum convolvulus; details: dose 320 g a.c./ha, scored after 3 to 4 weeks under glass
From the text: as §2, §3

CYPES = experiment: as above; type: in vivo, Cyperus serotinus; details: dose 320 g a.c./ha, scored after 3 to 4 weeks under glass
From the text: as §2, §3

ALOMY [4] = experiment: Post-emergence herbicidal action against weed plants; type: in vivo, Alopecurus myosuroides; details: dose 80 g a.c./ha, scored after 3 to 4 weeks under glass
Experimental: as §1

AMARE [5] = experiment: Pre-emergence herbicidal action against weed plants; type: in vivo; details: dose 320 g a.c./ha, scored after 3 to 4 weeks under glass
From the text: as §2, §3

LOLMU [6] = experiment: as above; type: in vivo, Lolium multiflorum; details: dose 320 g a.c./ha, scored after 3 to 4 weeks under glass
From the text: as §2, §3

ABUTH = experiment: Post-emergence herbicidal action against weed plants; type: in vivo, Abutilon theophrasti; details: dose 80 g a.c./ha, scored after 3 to 4 weeks under glass
Experimental: as §1

LOLMU [7] = experiment: as above; type: in vivo, Lolium multiflorum; details: dose 80 g a.c./ha, scored after 3 to 4 weeks under glass
Experimental: as §1

AMARE [8] = experiment: as above; type: in vivo; details: dose 80 g a.c./ha, scored after 3 to 4 weeks under glass
Experimental: as §1, with “2.” for “[table] 2.”

Cc1c(C(=O)c2cnn(C)c2O)ccc(C(F)(F)F)c1S(C)(=O)=O
Herbicidal action against PHBPU (PHBPU [1]; dose 12.5 g a.c./ha): 50%
Herbicidal action against EPHHL (EPHHL): 45%

Cc1c(C(=O)c2cnn(C)c2O)ccc(C(F)(F)F)c1[S+](C)[O-] (stereo not shown)
Herbicidal action against PHBPU (PHBPU [2]): 50%
Herbicidal action against VIOTR (VIOTR): 90%
Herbicidal action against PAPRH (PAPRH): 55%
Herbicidal action against ALOMY (ALOMY [3]): 70%
Herbicidal action against MATIN (MATIN): 74%

CCn1ncc(C(=O)c2ccc(C(F)(F)F)c(S(C)(=O)=O)c2C)c1O
Herbicidal action against POLCO (POLCO): 60%
Herbicidal action against ALOMY (ALOMY [3]): 50%
Herbicidal action against CYPES (CYPES): 60%

CCn1ncc(C(=O)c2ccc(C(F)(F)F)c([S+](C)[O-])c2C)c1O (stereo not shown)
Herbicidal action against PHBPU (PHBPU [2]): 0%
Herbicidal action against PHBPU (PHBPU [1]; dose 80 g a.c./ha): 80%
Herbicidal action against ALOMY (ALOMY [4]): 60%
Herbicidal action against ALOMY (ALOMY [3]): 70%

Cc1nn(C)c(O)c1C(=O)c1ccc(C(F)(F)F)c(S(C)(=O)=O)c1C
Herbicidal action against AMARE (AMARE [5]): 90%
Herbicidal action against ALOMY (ALOMY [3]): 50%
Herbicidal action against CYPES (CYPES): 50%

Cc1nn(C)c(O)c1C(=O)c1ccc(C(F)(F)F)c([S+](C)[O-])c1C (stereo not shown)
Herbicidal action against VIOTR (VIOTR): 40%
Herbicidal action against LOLMU (LOLMU [6]): 60%
Herbicidal action against ABUTH (ABUTH): 80%
Herbicidal action against ALOMY (ALOMY [3]): 60%
Herbicidal action against LOLMU (LOLMU [7]): 30%
Herbicidal action against AMARE (AMARE [8]): 50%

Cc1c(C(=O)C2C(=O)C3CCC(C3)C2=O)ccc(C(F)(F)F)c1[S+](C)[O-] (stereo not shown) [inventive compound No. 1-9]
Herbicidal action against PHBPU (PHBPU [2]): 80%
Herbicidal action against VIOTR (VIOTR): 100%
Herbicidal action against PHBPU (PHBPU [1]; dose 80 g a.c./ha): 90%
Herbicidal action against PAPRH (PAPRH): 95%
Herbicidal action against LOLMU (LOLMU [6]): 90%
Herbicidal action against ALOMY (ALOMY [4]): 80%
Herbicidal action against ABUTH (ABUTH): 100%
Herbicidal action against ALOMY (ALOMY [3]): 100%
Herbicidal action against LOLMU (LOLMU [7]): 80%
Herbicidal action against MATIN (MATIN): 95%
Herbicidal action against AMARE (AMARE [8]): 90%

Cc1c(C(=O)C2C(=O)C3CCC(C3)C2=O)ccc(C(F)(F)F)c1S(C)(=O)=O (stereo not shown) [inventive compound No. 1-17]
Herbicidal action against PHBPU (PHBPU [1]; dose 12.5 g a.c./ha): 85%
Herbicidal action against AMARE (AMARE [5]): 100%
Herbicidal action against EPHHL (EPHHL): 85%
Herbicidal action against POLCO (POLCO): 100%
Herbicidal action against ALOMY (ALOMY [3]): 90%
Herbicidal action against CYPES (CYPES): 90%
